Assay results taken from patent US20190336496A1, “SELECTIVE BCL-2 INHIBITORS IN COMBINATION WITH AN ANTI-PD-1 OR AN ANTI-PD-L1 ANTIBODY FOR THE TREATMENT OF CANCERS” (AbbVie Inc., priority 2018, published 2019).

Key:
CT26 tumors = assay: CT26 mouse colon carcinoma syngeneic model; assay type: in vivo; details: CT26 in BALB/c mice; venetoclax 50 mg/kg/day orally 14 days; antibody 10 mg/kg IP every 4 days, 3 times; day 18
Experimental: BALB/c, C57BL/6, CB6F1 (C57BL/6 bred with BALB/c) and SCID mice were obtained from Charles River (Wilmington, Mass.).
EMT6, mouse mammary carcinoma and CT26, mouse colon carcinoma, cell lines were obtained from ATCC (Manassas, Va.).
Compound (I),venetoclax, was formulated in 10% ethanol+30% PEG 400+60% Phosal® 50PG. Venetoclax was administered orally once a day for 14 days at 50 mg/kg/day.
1×10^5 CT26, EMT6 or MC38 cells were subcutaneously injected with Matrigel into the flanks of BALB/c, CB6F1 or C57BL/6 mice, respectively. Seven days later, mice were randomized to treatment groups of vehicle, venetoclax, anti-PD-1/PD-L1 or the combination of venetoclax and anti-PD-1/PD-L1. Tumor volume was determined via measurements of the length (L) and width (W) of the tumor with electronic calipers and the volume was calculated according to the following equation: V=L×W2/2 using Study Director Version 2.1.11 (Studylog Systems Inc., South San Francisco). Complete response (CR) was defined as reduction in tumor volume to ≤25 mm^3 over at least 3 successive measurements.

CMV-positive human PBMCs = assay: CMV recall assay in the presence of anti-PD-1 antibody; assay type: cell-based; details: 1 μg/mL CMV antigen, day 4
Experimental: The cytomegalovirus (CMV) recall assay was used assess the functional effects of venetoclax on antigen-experienced immune cells and to evaluate the effect of venetoclax on anti-PD1 immune response. This assay used cytomegalovirus (CMV) antigen to stimulate pre-existing memory T-cells in CMV-positive human PBMCs. Human CMV-positive PBMCs (Cat.No:1001; Lot. No. 3634JY17) and CMV antigen (Cat. No. 1004) were purchased from Astarte Biologics. 2×10^5 CMV-positive PBMCs were stimulated with 1 μg/mL of CMV antigen with or without inhibitors +/−anti-PD-1 (nivolumab) in Roswell Park Memorial Institute (RPMI) media supplemented with 10% fetal bovine serum (FBS) and 1% antibiotics. On day 4, secreted IFNγ was measured by ELISA and the live cells were analyzed using a live dead stain, Zombie Green™ (BioLegend®) using LSRFortessa™ X-20 instrument (BD Biosciences). Venetoclax reduced the percentage of live cells compared to DMSO as single agent or in combination with nivolumab (FIG. 10D).

mouse lymphocytes = assay: In vivo sensitivity of lymphocytes (flow cytometry)
Experimental: FIG. 2: In vivo sensitivity of lymphocytes to Compound (I). […] Descriptions of each sub-section are as follows: (A) In vivo sensitivity of lymphocytes following one week of treatment with Compound (I). Naïve CB6F1 mice were treated daily with Compound (I) (50/mg/kg) for one week. Lymph nodes were collected, and immune cells were quantified by flow cytometry; (B) In vivo sensitivity of splenocytes following one week of treatment with Compound (I). Naïve C57BL/6 mice were treated daily with Compound (I) (50/mg/kg) for one week. Spleens were collected and immune cells were quantified by flow cytometry. Mouse splenocytes, including B-cells, CD8+ T-cells, and CD4+ T-cells, were sensitive to in vivo treatment with Compound (I), as described in Example 1; (C) In vivo sensitivity of T-cell subsets in splenocytes following one week of treatment with Compound (I). CD4+ naïve T-cells (TN) and CD8+ central memory T-cells in the spleen from C57BL/6 mice were slightly sensitive to in vivo Compound (I) treatment while the proportion of CD4+ and CD8+ effector memory T-cells (TEM) was increasing; and (D) In vivo sensitivity of T-cell subsets in the blood following one week of treatment with Compound (I). The proportion of CD4+ and CD8+ effector memory T cells (TEM) increased in the blood from C57BL/6 mice following in vivo Compound (I) treatment.
Cancer Immunol Res. 5; 29-41 (2017)). Any reduction in checkpoint inhibitor-mediated tumor growth inhibition or response rates caused by the addition of venetoclax would indicate potential antagonism. The panel was composed of syngeneic models of solid tumors: CT26, MC38 (both colorectal carcinoma) and EMT6 (breast cancer). […] Likewise, only modest anti-tumor activity could be observed in these models with venetoclax alone, dosed daily at 50 mg/kg for 14 days (FIG. 3, FIG. 6, FIGS. 12A, 12B, 12C, and 12D). […] Rather, it enhanced their efficacy in certain cases.

CMV-positive CD8 T cells = assay: CMV specific CD8 T cell response; assay type: cell-based, human; details: overnight (12-14 hours) incubation
Source text: The cytomegalovirus (CMV) specific assay was used to evaluate the effects of venetoclax on antigen-experienced CD8 T cells. This assay used CMV) peptide pp65 ([…], SEQ ID NO: 53) to stimulate CMV-positive CD8 T cells, and MART ([…]) peptide as a negative control. Human CMV-positive CD8 T cells and CMV peptide pp65 were purchased from Astarte Biologics and MART peptide as purchased from Genscript. 2×10^5 CMV-positive CD8 T cells were stimulated with 2×10^5 CMV pp65 peptide or MART peptide loaded T2 cells (2.5 μg/ml of peptide) with brefeldin-A in RPMI media supplemented with 10% fetal bovine serum (FBS). For measuring the IFNγ secretion in the supernatant, CMV+ CD8 T cells were activated with CMV pp65 peptide or MART peptide loaded T2 cells and incubated with venetoclax without brefeldin-A in RPMI media supplemented with 10% fetal bovine serum (FBS). […] Cells were analyzed using an LSRFortessa™ X-20 instrument (BD Biosciences). The secreted IFNγ in supernatant was measured by ELISA.
CMV+ CD8 T cells were activated by CMV pp65 peptide ([…]) loaded on T2 cells and the effect of venetoclax on the function of these cells was assessed by measuring intra-cellular and secreted IFNγ (flow cytometry and ELISA as described above). […]

NCI-H211 = assay: Venetoclax cell killing (CellTiter-Glo); assay type: cell-based, human
Experimental: Solid tumor cell lines were obtained from American Type Culture Collection (ATCC, Manassas, Va.) or the National Cancer Institute (NCI) and cultured in humidified incubators at 37° C. (5% CO2) in appropriate media (specified by supplier) supplemented with 10% fetal bovine serum (FBS) or 10% human serum (HS). 24 hours after plating into 96-well or 384-well tissue culture plates, venetoclax was added to cells at various concentrations (typically 0.010 to 10 μM in half-log increments) to perform concentration-response assessments of cell killing. After 1 to 5 days of culture in the presence of venetoclax, cell viability was assessed using CellTiter-Glo® reagent (Promega). IC50 values were determined by non-linear regression analysis of the concentration response data (Table 5 and Table 6).

With `CC1(C)CCC(CN2CCN(c3ccc(C(=O)NS(=O)(=O)c4ccc(NCC5CCOCC5)c([N+](=O)[O-])c4)c(Oc4cnc5[nH]ccc5c4)c3)CC2)=C(c2ccc(Cl)cc2)C1` [Compound (I), venetoclax] the “tumor growth inhibition (TGI)” value (CT26 tumors) was 16%, the “IFNγ secretion from antigen specific CMV+ T cells (ELISA)” value (CMV-positive human PBMCs) was “remained comparable to DMSO control” and the “percentage of live cells compared to DMSO” value (CMV-positive human PBMCs) was “reduced”. For the same molecule, the “sensitivity of lymphocytes in lymph node, spleen and blood (B-cells, CD8+ T-cells, CD4+ T-cells)” value (mouse lymphocytes; daily 50/mg/kg for one week, flow cytometry) was “sensitive”, the “murine T-cell populations in vivo” value (mouse lymphocytes; mice treated daily at 50 mg/kg for one week) was “clear reductions” and the “proportion of memory cells, specifically effector memory cells” value (mouse lymphocytes; spleen and blood of C57BL/6 mice, one week of treatment) was “increase”. The “number of CD8 T cells” value (CMV-positive CD8 T cells) was “reduced”, the IC50 (NCI-H211; Homo sapiens, NCI-H211, 48 h, Lung, 10% HS, 2 days) was 30 nM and the “sensitivity at clinically relevant concentrations” value (NCI-H211; only line of Tables 5 and 6) was “showed sensitivity”.
